Article PMC8960591, “PCSK9 acts as a key regulator of Aβ clearance across the blood–brain barrier” (Cellular and Molecular Life Sciences: CMLS, 2022)

Assays:
5xFAD mice [1] = experiment: Immunoblot of liver lysates, serum, capillary-depleted brain fractions and CSF; type: in vivo, mouse; conditions: 6-month-old 5xFAD mice, 1 µg/g Alirocumab for 10 weeks vs 0.9% NaCl
Procedure: (§1) 14-weeks-old female 5xFAD transgenic or wildtype littermates were randomized into groups with similar average body weights (18–20 g), respectively. 1 µg/g Alirocumab (Sanofi), Evolocumab (Amgen), or non-specific human IgG2 control antibody (Bio X Cell) in 0.9% isotonic saline solution (BBraun) or the analogous volume of pure 0.9% isotonic saline solution were weekly i.p. injected for a period of 10 weeks. 7 days before starting the injection procedure LRP1^BE−/− was induced by i.p. injection of 75 µg/g tamoxifen (Sigma-Aldrich) for 5 consecutive days and maintained with chow containing 400 mg/kg tamoxifen citrate (LASvendi). […]
Protein concentrations were determined using the Pierce™ BCA Protein Assay Kit (Thermo Fisher Scientific) according to the manufacturer’s protocol. […]
Fig. 3 Systemic PCSK9 inhibition increases peripheral LRP1 level. A Liver lysates, B serum, as well as C capillary-depleted brain fractions and D CSF samples of 6-month-old 5xFAD mice, treated repetitively with A–C 1 µg/g Alirocumab or D Evolocumab in comparison to A–C 0.9% NaCl or D non-specific human control IgG2 for 10 weeks were evaluated via immunoblot analyses for LRP1 (full length, α-chain, β-chain), LDL receptor, human as well as mouse IgG, and ApoE, and representatively presented. […]

5xFAD mice [2] = experiment: Fear conditioning (contextual and cued fear response, behaviour in training phase); type: in vivo, mouse; conditions: n = 8–13 per group
Procedure: (§2) 14-weeks-old female 5xFAD transgenic or wildtype littermates were randomized into groups with similar average body weights (18–20 g), respectively. 1 µg/g Alirocumab (Sanofi), Evolocumab (Amgen), or non-specific human IgG2 control antibody (Bio X Cell) in 0.9% isotonic saline solution (BBraun) or the analogous volume of pure 0.9% isotonic saline solution were weekly i.p. injected for a period of 10 weeks. 7 days before starting the injection procedure LRP1^BE−/− was induced by i.p. injection of 75 µg/g tamoxifen (Sigma-Aldrich) for 5 consecutive days and maintained with chow containing 400 mg/kg tamoxifen citrate (LASvendi). To sacrifice animals, mice were anesthetized with 100 µg/g ketamine (Pfizer) in combination with 10 µg/g xylazine (Bayer HealthCare) and euthanized by cervical dislocation.
24-week-old female 5xFAD mice LRP1^BEfl/fl or LRP1^BE−/− and wildtype age-matched female littermates treated as described earlier were assessed for contextual and cued fear response adapted to previous studies, using the computerized TSE Multi Conditioning System (TSE GmbH). Movement was assessed by high-resolution infrared sensors (100 Hz) in three dimensions (14 mm distant) and documented by the FCS software. In the training phase, mice were placed in the conditioning chamber for 3 min, followed by a 30-s tone application (72 dB, 9 kHz). During the last 2 s, the tone was accompanied by shock delivery (0.7 mA). Contextual memory testing was performed 24 h-post conditioning, confronting the animals 3 min to the training context without tone application. Cued memory was assessed 2 h later, by pre-exposing the animals 3 min to a non-conditioned context, followed by a tone application for 60 s according to the training session. Freezing behavior (the absence of all but respiratory movements ≥ 2 s), motoric abilities, environmental behavior (% of explored area), and activity (≥ 30 mm/s)/hyperactivity (≥ 200 mm/s) levels were recorded automatically.
Fig. 6 Peripheral PCSK9 inhibition improves contextual memory formation of 5xFAD transgenic mice in a Fear Conditioning paradigm. 6-month-old 5xFAD mice treated with 1 µg/g Alirocumab or 0.9% NaCl for 10 weeks were analyzed for A hippocampus-dependent contextual fear response and B hippocampus-independent cued fear response in comparison to wildtype and LRP1^BE−/− littermates. […] Higher freezing behavior percentage indicates stronger memory formation. Data represent mean ± SEM of n = 8–13 mice per group. For statistical analyses one-way ANOVA followed by Tukey’s multiple comparison test was used (*p < 0.05; **p < 0.01)

5xFAD mice [3] = experiment: Plaque load quantification by immunofluorescence; type: in vivo, mouse; conditions: 6-month-old 5xFAD mice, 1 µg/g Alirocumab for 10 weeks vs 0.9% NaCl, plaques ≥ 80 µm2, mean
Procedure: as §1
Mice were transcardially perfused with ice-cold PBS followed by 4% Roti®-Histofix (Roth). […] Within one hemisphere 12 sections were analyzed; 6 representatives for prefrontal cortex (corresponding to bregma from 0.86 to + 0.62 mm) and 6 for the hippocampus (corresponding to bregma from − 1.82 to − 2.06 mm). Plaque load (aggregates ≥ 80 µm^2) was quantified using the NIH ImageJ 1.52 software as described previously.
Fig. 5 Aβ plaque load of prefrontal cortex and hippocampus is reduced due to systemic PCSK9 inhibition. A Prefrontal cortex and B hippocampus of 6-month-old 5xFAD mice treated with 1 µg/g alirocumab or 0.9% NaCl for ten weeks were quantified for amyloid plaques. […]

5xFAD mice [4] = experiment: Brain Aβ1–40 and Aβ1–42 ELISA of soluble and insoluble brain fractions after repetitive anti-PCSK9 antibody injection; type: in vivo, mouse; conditions: n = 4–14 per group
Procedure: as §2
Extracted blood was supplemented with an EDTA-free protease inhibitor cocktail (Roche Applied Science) and allowed to clot at room temperature for 10 min. Liver were weighed and homogenized in 3 ml/g fresh cold tissue lysis buffer [50 mmol/l Tris (pH 7.4), 150 mmol/l NaCl, 0.1% (w/v) SDS, 1% (v/v) Nonidet P-40, 0.5% (w/v) sodium deoxycholate, 1 mmol/l EDTA (pH 7.4)] containing an EDTA-free protease inhibitor cocktail using the Precellys Lysing Kit (Bertin instruments). Extracts were purified for 3 min (18,620 rcf, 4 °C). CSF samples were isolated via puncture of cisterna magna as described previously and purified for 10 min (1000 rcf, 4 °C). Brains were weighed and soluble and insoluble brain fractions sequential extracted. Initially, homogenization by a glass homogenizer occurred in 6 ml/g PBS, containing an EDTA-free protease inhibitor cocktail and 1 mmol/l EDTA (pH 7.4). The homogenate was centrifuged for 20 min (131,700 rcf, 4 °C) and the supernatant (soluble brain fraction) isolated. Subsequently, the brain pellet was homogenized in 4 ml/g PBS containing 2% (v/v) SDS using the Precellys Lysing Kit. Centrifugation was repeated and the supernatant (insoluble brain fraction) collected. The preparation of capillary-depleted brain fractions based on an established protocol. Briefly, brains were weighed, homogenized by a glass homogenizer in 6 ml/g PBS, and centrifuged for 5 min (1350 rcf, 4 °C). The pellet was resuspended in 3 ml/g PBS, containing 18% dextran (~ 70,000 g/mol; Roth), vortexed thoroughly for 1 min, and centrifuged for 10 min (4863 rcf, 4 °C). Subsequently, the supernatant (capillary-free brain fraction) was transferred, mixed thoroughly with 3 ml/g PBS, and centrifuged for 5 min (1350 rcf, 4 °C). The brain parenchymal pellet was lysed for 20 min using tissue lysis buffer containing an EDTA-free protease inhibitor cocktail and 1 mmol/l EDTA (pH 7.4) and purified for 20 min (18,620 rcf, 4 °C). Each isolated sample was snap frozen via liquid nitrogen and stored at − 80 °C.
The levels of Aβ1–40 and Aβ1–42 in soluble and insoluble brain fractions were blindly determined using Human Amyloid β (FL) Assay Kits (Immuno-Biological Laboratories) according to the manufacturer’s protocol.
Fig. 4 Peripheral PCSK9 inhibition reduces overall Aβ burden. […] Lanes were run on the same gel but were noncontinuous. Aβ1–40 and Aβ1–42 signals were verified by loading peptide standards. Data represent mean ± SEM of n = 4–14 mice per group. For statistical analyses one-way ANOVA followed by Tukey’s multiple comparison test was used (*p < 0.05; **p < 0.01)

PCSK9 = molecular target: T1, PCSK9 (Mus musculus, UniProt Q80W65); experiment: Free circulating PCSK9 in serum (immunoprecipitation with crosslinked Evolocumab, immunoblot); type: in vivo; conditions: 6-month-old 5xFAD mice, 1 µg/g Evolocumab for 10 weeks vs non-specific human IgG2 control antibody
T1 construct: substantially decreases the amount of free circulating PCSK9; from tissue; host or cells: serum of 6-month-old 5xFAD mice
T1 sequence (Q80W65 156-694): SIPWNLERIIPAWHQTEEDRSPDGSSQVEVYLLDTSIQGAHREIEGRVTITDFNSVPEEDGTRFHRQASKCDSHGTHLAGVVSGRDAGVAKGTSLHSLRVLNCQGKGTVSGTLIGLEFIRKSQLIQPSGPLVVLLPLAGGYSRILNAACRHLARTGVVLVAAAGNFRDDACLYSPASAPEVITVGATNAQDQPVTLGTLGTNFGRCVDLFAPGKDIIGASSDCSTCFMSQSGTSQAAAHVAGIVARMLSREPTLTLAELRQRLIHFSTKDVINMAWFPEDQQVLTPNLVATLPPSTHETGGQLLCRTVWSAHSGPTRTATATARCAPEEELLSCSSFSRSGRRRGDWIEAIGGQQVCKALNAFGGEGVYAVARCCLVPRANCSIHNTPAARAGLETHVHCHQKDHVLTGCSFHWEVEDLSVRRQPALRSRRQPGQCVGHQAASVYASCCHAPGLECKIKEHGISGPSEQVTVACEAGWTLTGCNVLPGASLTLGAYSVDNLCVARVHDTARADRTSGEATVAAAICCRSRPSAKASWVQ
Procedure: Precleared serum via raw Protein A Agarose (Roche) was diluted in PBS containing an EDTA-free protease inhibitor cocktail and incubated with Protein A Agarose crosslinked to Evolocumab overnight at 4 °C. Beads were washed three times with PBS, followed by elution in 100 mmol/l glycine (pH 2.7) and neutralization with 500 mmol/l tris (pH 8.0).
Supplementary Fig. 2 Systemic PCSK9 inhibition reduces serum LDL/VLDL and free PCSK9 levels. (A) Serum LDL/VLDL- and (B) HDL-cholesterol levels of 6-months-old 5xFAD mice, treated repetitively with 1 µg/g Evolocumab or non-specific human IgG2 control antibody for ten weeks were assessed via ELISA. Data represents mean ± SEM of n = 8 - 9 mice per group. For statistical analyses unpaired two-tailed t-test was used (*p <0.05). (C) Additionally, serum samples were precleared by using raw Protein A Agarose and incubated with Protein A Agarose crosslinked to Evolocumab. Levels of immunoprecipitated PCSK9 were evaluated via immunoblot analyses and representatively presented

5xFAD mice [5] = experiment: Serum LDL/VLDL and HDL cholesterol; type: in vivo, mouse; conditions: 6-month-old 5xFAD mice, 1 µg/g Evolocumab for 10 weeks vs non-specific human IgG2 control antibody; n = 8–9 per group
Procedure: as §2
Serum VLDL/LDL and HDL cholesterol were separated and concentrations blindly determined using the Cholesterol Assay Kit—HDL and LDL/VLDL (Abcam) according to the manufacturer’s protocol.
Supplementary Fig. 2 Systemic PCSK9 inhibition reduces serum LDL/VLDL and free PCSK9 levels. (A) Serum LDL/VLDL- and (B) HDL-cholesterol levels of 6-months-old 5xFAD mice, treated repetitively with 1 µg/g Evolocumab or non-specific human IgG2 control antibody for ten weeks were assessed via ELISA. […] Levels of immunoprecipitated PCSK9 were evaluated via immunoblot analyses and representatively presented

[6] = 5xFAD LRP1BE−/− mice, 1 µg/g Alirocumab for 10 weeks vs 0.9% NaCl
[7] = 6-month-old 5xFAD mice, 1 µg/g Alirocumab for 10 weeks vs 0.9% NaCl
[8] = 6-month-old female 5xFAD mice, 1 µg/g Alirocumab i.p. weekly for 10 weeks vs 0.9% NaCl, mean

Question: With “Alirocumab: FDA-approved monoclonal anti-PCSK9 antibody (Sanofi)” as the molecule, how does the “peripheral LRP1 level (liver lysates)” value (5xFAD mice [1]) read?
Answer: increases

Question: And the “hippocampus-dependent learning capacity (contextual fear)” value (5xFAD mice [2]; [6])?
Answer: do not significantly benefit

Question: And the “hippocampus-independent cued fear response” value (5xFAD mice [2]; 5xFAD, 5xFAD LRP1BE−/− and wildtype littermates, PCSK9 inhibition or control, 2 h after contextual test)?
Answer: no significant differences

Question: And the “contextual fear response (freezing) vs control-treated 5xFAD mice” value (5xFAD mice [2]; 6-month-old 5xFAD mice, 1 µg/g Alirocumab for 10 weeks vs 0.9% NaCl, 24 h post-training)?
Answer: significant increased

Question: What about the “activity and hyperactivity levels and basal freezing during the conditioning phase” value (5xFAD mice [2]; [7]) of the same molecule?
Answer: No differences

Question: What about the “motoric abilities and environmental behavior during the conditioning phase” value (5xFAD mice [2]; [7]) of the same molecule?
Answer: No differences

Question: And the “contextual freezing vs control-treated wildtype littermates” value (5xFAD mice [2]; 6-month-old 5xFAD mice, 1 µg/g Alirocumab for 10 weeks, 24 h post-training)?
Answer: no significant difference

Question: And the “contextual freezing, treated vs control-treated wildtype animals” value (5xFAD mice [2]; wildtype littermates, 1 µg/g Alirocumab for 10 weeks vs 0.9% NaCl)?
Answer: did not detect any significant difference

Question: And the “reduction of plaque load, hippocampus” value (5xFAD mice [3]; n = 3–4 per group)?
Answer: ~ 23%

Question: What about the “reduction of plaque load, prefrontal cortex” value (5xFAD mice [3]; n = 8 per group) of the same molecule?
Answer: ~ 17%

Question: And the “soluble and insoluble Aβ1–40 and Aβ1–42 levels vs control-treated mice” value (5xFAD mice [4]; [6])?
Answer: no significant difference

Question: What about the “reduction of insoluble brain Aβ1–40” value (5xFAD mice [4]; [8]) of the same molecule?
Answer: ~ 44%

Question: What about the “reduction of insoluble brain Aβ1–42” value (5xFAD mice [4]; [8]) of the same molecule?
Answer: ~ 38%

Question: And the “reduction of soluble brain Aβ1–40” value (5xFAD mice [4]; [8])?
Answer: ~ 58%

Question: And the “reduction of soluble brain Aβ1–42” value (5xFAD mice [4]; [8])?
Answer: ~ 51%

B1: Evolocumab: FDA-approved monoclonal anti-PCSK9 antibody (Amgen) (antibody, chains of the INN, looked up, V domains shown)
VH: EVQLVQSGAEVKKPGASVKVSCKASGYTLTSYGISWVRQAPGQGLEWMGWVSFYNGNTNYAQKLQGRGTMTTDPSTSTAYMELRSLRSDDTAVYYCARGYGMDVWGQGTTVTVSS
VL: ESALTQPASVSGSPGQSITISCTGTSSDVGGYNSVSWYQQHPGKAPKLMIYEVSNRPSGVSNRFSGSKSGNTASLTISGLQAEDEADYYCNSYTSTSMVFGGGTKLTVL
Question: B1 was tested. Which “free PCSK9 level in serum” value (PCSK9) did it give?
Answer: reduces

Question: What about the “serum LDL/VLDL-cholesterol level” value (5xFAD mice [5]) of the same molecule?
Answer: reduces
